According to US20240139197A1, “INHIBITION OF KDM5A FOR PROMOTING ANTIGEN PRESENTATION, INCREASING CD8+ T CELL INFILTRATION AND BOOSTING ANTI-TUMOR IMMUNE RESPONSE” (The Wistar Institute of Anatomy and Biology, priority 2022, published 2024):

Tests used:
Assay type in all cases: cell-based, mouse
H3K4me3 in ID8 cells = assay: immunoblot of H3K4me3, ID8; settings: ID8, 10 μM
Experimental: (§1) FIG. 2A-FIG. 2J show KDM5A inhibition suppresses tumor growth in vivo in an immune-competent mouse model of ovarian cancer. (FIG. 2A) Expression of Kdm5a, H3K4me3, and a loading control β-actin in doxycycline-inducible shKdm5a ID8 mouse EOC cells treated with or without 2 μg/mL of doxycycline. (FIG. 2B) ID8 cells were plated into 24 well plates and treated with 2 μg/mL of doxycycline the same day. Cells were incubated for 8 days. Relative cell viability was determined by colony formation assay. (FIG. 2C) Expression of Kdm5a, H3K4me3, and a loading control β-actin in ID8 cells treated with 10uM CPI-455 or vehicle control. (FIG. 2D) ID8 cells were plated into 24 well plates and incubated with 10 μM CPI-455 for 8 days with fresh drug-containing media every 3 days. Relative cell viability was determined by colony formation assay. (FIG. 2E) Ascites produced in C57BL/6 mice injected with doxycycline-inducible shKdm5a ID8 cells treated with control or doxycycline containing food. (FIG. 2F) Quantification of ascites volumes from FIG. 2E. […] (FIG. 21) Quantification of ascites volumes from FIG. 2H. […] Data represent mean±SEM of three biological repeats or 5 mice per group; P-value was calculated by using a two-tailed Student t test except in FIG. 2G and FIG. 2J by log rank tests.
Cells were trypsinized and washed two times with PBS. […] Protein concentration was measured by the BCA assay (Pierce, Cat #23225). […]

H2-K1 on HGS2 cells = assay: cell surface MHC class I H2-K1 by FACS, HGS2; settings: HGS2, in response to IFNγ
Text: FIG. 8A-FIG. 8K show KDM5A regulates antigen processing and presentation pathway. (FIG. 8A) Validation of Kdm5a knockout and upregulation of H3K4me3 in Kdm5a knockout ID8 cells by immunoblot. β-actin expression was used as a loading control. (FIG. 8B) GSEA KEGG enrichment analysis of differentially expressed genes (DEGs) between control and Kdm5a knockout ID8 cells. NES, normalized enrichment score. (FIG. 8C) Enrichment plot of GSEA for antigen processing and presentation pathway. […] (FIG. 8E) Expression of Kdm5a and a loading control β-actin in inducible Kdm5a knockdown HGS2 cells with or without doxycycline treatment determined by immunoblot. (FIG. 8F) Cell surface expression of H2-K1 in HGS2 cells with or without inducible Kdm5a knockdown stimulated with IFNy was determined by FACS analysis. (FIG. 8G) Quantification of FIG. 8F. (FIG. 8H) Cell surface expression of H2-K1 in HGS2 cells treated with or without CPI455 and stimulated with IFNy was determined by FACS analysis. (FIG. 8I) Quantification of FIG. 8H; (FIG. 8J) Correlation between CD8A and HLA-A or HLA-B expression based on RNA-seq analysis in the TCGA HGSOC dataset. […] Data represent mean +SEM; P values were calculated by using a two-tailed Student t test except in FIG. 8J and FIG. 8K by using Pearson r analysis and FIG. 8B and FIG. 8C by using GSEA. […]

ID8 cells = assay: cell viability by colony formation assay, ID8; settings: ID8, 10 μM, 8 days
Experimental: as §1, with “2E. (FIG. 2G) Kaplan-Meier survival curves for the indicated groups.” for “2E.”, “tests. […]” for “tests.”

For CPI-455, the H3K4me3 levels (H3K4me3 in ID8 cells) was “increase H3K4me3 levels”, the “MHC class I presence on cell surface” value (H2-K1 on HGS2 cells) was “increased MHC class I presence on cell surface” and the cell viability (ID8 cells) was “did not affect cell viability”.
